Data as given in patent CN107801692A, “一种氯胺酮诱导精神分裂症动物模型及其机制研究” (Kunming Medical University, priority 2017, dated 2018).

Assays:
mice (小鼠) [1] = assay: Schizophrenia-like symptoms overall (behavioural tests together); assay type: in vivo, Kunming mouse; settings: i.p.
mice (小鼠) [2] = assay: Pole climbing test (爬杆实验), ataxia; assay type: in vivo, Kunming mouse; settings: medium and large dose (50, 100 mg/kg), i.p., once daily for 7 days; P<0.01
mice (小鼠) [3] = assay: Open field test (旷场实验), hyperlocomotion; assay type: in vivo, Kunming mouse; settings: medium and large dose (50, 100 mg/kg), i.p., single administration (day 1); P<0.01
mice (小鼠) [4] = assay: Y-maze test (Y型迷宫实验), learning and memory; assay type: in vivo, Kunming mouse; settings: medium and large dose (50, 100 mg/kg), i.p., once daily for 7 days; P<0.01
NOX4 protein (NOX4蛋白) = assay: NOX4 protein expression (immunohistochemistry); assay type: in vivo, Kunming mouse; settings: i.p.
SOD [5] = assay: Serum SOD determination; assay type: in vivo, Kunming mouse; settings: 25, 50, 100 mg/kg, i.p., once daily for 7 days; with increasing dose
mice (小鼠) [6] = assay: Suspension test (悬吊实验), limb weakness; assay type: in vivo, Kunming mouse; settings: i.p., single administration (day 1)
mice (小鼠) [7] = assay: Stereotyped behaviour (刻板行为); assay type: in vivo, Kunming mouse; settings: medium and large dose (50, 100 mg/kg), i.p., P<0.01
[8] = test system: depressed patients (抑郁患者); settings: 0.5 mg/kg; Liebrenz et al.; cited from earlier work
rats (大鼠) = settings: repeated injection; Trujillo et al.; cited from earlier work
SOD [9] = assay: Brain tissue SOD determination; assay type: in vivo, Kunming mouse; settings: 25, 50, 100 mg/kg, i.p., once daily for 7 days; with increasing dose
[10] = 25, 50, 100 mg/kg, single or repeated administration

CNC1(c2ccccc2Cl)CCCCC1=O (stereo not drawn) [氯胺酮]
schizophrenia-like symptoms (mice (小鼠) [1]; [10]): 均可诱导小鼠产生类似精神分裂症的症状 | schizophrenia-like symptoms, dose dependence (mice (小鼠) [1]; [10]): 具有一定的剂量依赖趋势 | stability of part of the symptoms (mice (小鼠) [1]; after 7 days of repeated administration): 部分症状具有更好的稳定性 | schizophrenia-like symptoms (mice (小鼠) [1]; large dose 100 mg/kg): 更为明显 | ataxia (mice (小鼠) [2]): 共济失调现象 | hyperlocomotion (mice (小鼠) [3]): 明显的运动亢进 | learning and memory ability (mice (小鼠) [4]): 学习记忆能力下降 | NOX4 protein expression, dose dependence (NOX4 protein (NOX4蛋白); 25, 50, 100 mg/kg): 有一定的剂量依赖趋势 | NOX4 protein expression, pairwise comparison among dose groups (NOX4 protein (NOX4蛋白); 25, 50, 100 mg/kg, P<0.01): 具有显著性差异 | NOX4 protein expression (NOX4 protein (NOX4蛋白); different doses of ketamine (25, 50, 100 mg/kg), P<0.01): 显著增加 | serum SOD activity, dose trend (SOD [5]): 逐渐降低 | limb weakness (mice (小鼠) [6]; medium and large dose (50, 100 mg/kg), P<0.01): 四肢无力 | limb weakness (mice (小鼠) [6]; small dose 25 mg/kg, P<0.05): 产生四肢无力 | stereotyped behaviour (mice (小鼠) [7]; once daily for 7 days): 刻板行为增加 | stereotyped behaviour (mice (小鼠) [7]; single administration (day 1)): 刻板行为 | symptoms of depressed patients [8]: 显著改善 | activity of rats (rats (大鼠)): 活动增多 | brain tissue SOD activity, dose trend (SOD [9]): 逐渐降低
